From patent US8173788B2, “Peptide having ability to activate cancer-related gene” (priority 2005, dated 2012)

Tested on: human normal peripheral blood monocyte
Test: Influence of the artificially synthesized peptide on normal cell genes: coculture 7 hr, DNA chip system (Clontech), about 55000 human genes (Table 4)
Format: cell-based
Description: (a) The peptide obtained in Example 3 was added to a human normal peripheral blood monocyte culture system (10 to 100 μg peptide/1×10^6 to 1×10^7 monocytes), and they were cocultured for 7 hr. Then, mRNA was extracted from the monocytes and was applied to analysis for up-regulation and down-regulation in respect to about 55000 human genes by using DNA chip system (Clontech).

[1] = Enhanced Gene, Immune System Gene, Gene No. 21607, colony stimulating factor 1 (macrophage) (CSF1), transcript variant 1
[2] = Enhanced Gene, Immune System Gene, Gene No. 22100, IL5-CI0001-181000-178-f03 CI0001 Homo sapiens cDNA
[3] = Enhanced Gene, Immune System Gene, Gene No. 22254, interleukin 4 (IL4), transcript variant 1
[4] = Enhanced Gene, Immune System Gene, Gene No. 25767, tumor necrosis factor (TNF superfamily, member 2) (TNF)
[5] = Enhanced Gene, Immune System Gene, Gene No. 28615, IL3-UT0117-080301-496-D07 UT0117 Homo sapiens cDNA
[6] = Enhanced Gene, Immune System Gene, Gene No. 29703, chemokine (C—X—C motif) ligand 9 (CXCL9)
[7] = Enhanced Gene, Immune System Gene, Gene No. 45170, transforming growth factor beta 1 induced transcript 1 (TGFB1I1)
[8] = Enhanced Gene, Immune System Gene, Gene No. 51904, interleukin 1 family, member 8 (eta) (IL1F8), transcript variant 1
[9] = Enhanced Gene, Oncogene, Gene No. 2183, neuro-oncological ventral antigen 1 (NOVA1), transcript variant 1
[10] = Enhanced Gene, Oncogene, Gene No. 3642, RAB2, member RAS oncogene family (RAB2)
[11] = Enhanced Gene, Oncogene, Gene No. 3858, preferentially expressed antigen in melanoma (PRAME), transcript variant 3
[12] = Enhanced Gene, Oncogene, Gene No. 4210, RAS-like, family 11, member A (RASL11A)
[13] = Enhanced Gene, Oncogene, Gene No. 6231, breast carcinoma amplified sequence 1 (BCAS1)
[14] = Enhanced Gene, Oncogene, Gene No. 6329, mutated in colorectal cancers (MCC)
[15] = Enhanced Gene, Oncogene, Gene No. 7394, HELA CELLS COT 25-NORMALIZED cDNA clone CS0DK007YM05 3-PRIME
[16] = Enhanced Gene, Oncogene, Gene No. 8431, Ras-associated protein Rap1 (RBJ)
[17] = Enhanced Gene, Oncogene, Gene No. 8440, mab-21-like 2 (C elegans) (MAB21L2)
[18] = Enhanced Gene, Oncogene, Gene No. 14195, B-cell translocation gene 4 (BTG4)
[19] = Enhanced Gene, Oncogene, Gene No. 18829, v-myc myelocytomatosis viral related oncogene, neuroblastoma derived (avian) (MYCN)
[20] = Enhanced Gene, Oncogene, Gene No. 21713, zn87b11y5 Stratagene lung carcinoma 937218 cDNA clone IMAGE: 565149 5′
[21] = Enhanced Gene, Oncogene, Gene No. 22388, zb91f05s1 Soares_parathyroid_tumor NbHPA cDNA clone IMAGE: 320193 3′
[22] = Enhanced Gene, Oncogene, Gene No. 22675, endogenous retroviral family W, env(C7), member 1 (syncytin) (ERVWE1), mRNA
[23] = Enhanced Gene, Oncogene, Gene No. 24910, platelet-derived growth factor beta polypeptide (simian sarcoma viral (v-sis) oncogene homolog) (PDGFB), transcript variant 2
[24] = Enhanced Gene, Oncogene, Gene No. 29317, T-cell leukemia/lymphoma 6 (TCL6), transcript variant TCL6a1
[25] = Enhanced Gene, Oncogene, Gene No. 32050, disrupted in renal carcinoma 1 (DIRC1)
[26] = Enhanced Gene, Oncogene, Gene No. 34854, NEUROBLASTOMA COT 25-NORMALIZED cDNA clone CS0DC018YE24 3-PRIME
[27] = Enhanced Gene, Oncogene, Gene No. 34979, yu38e06r1 Soares ovary tumor NbHOT cDNA clone IMAGE: 236098 5′
[28] = Enhanced Gene, Oncogene, Gene No. 36631, RAB43, member RAS oncogene family (RAB43), mRNA
[29] = Enhanced Gene, Oncogene, Gene No. 37781, NEUROBLASTOMA COT 25-NORMALIZED cDNA clone CS0DC011YD03 5-PRIME
[30] = Enhanced Gene, Oncogene, Gene No. 38566, RAS protein activator like 2, mRNA (cDNA clone IMAGE: 5399841), with apparent retained intron
[31] = Enhanced Gene, Oncogene, Gene No. 46997, clone N11 NTera2D1 teratocarcinoma mRNA
[32] = Suppressed Gene, Cancer Suppressing Gene, Gene No. 8280, brain specific protein (CGI-38)
[33] = Suppressed Gene, Cancer Suppressing Gene, Gene No. 11261, breast cancer metastasis suppressor 1 (BRMS1)
[34] = Suppressed Gene, Cancer Suppressing Gene, Gene No. 11438, serologically defined breast cancer antigen 84 (SDBCAG84), transcript variant 1
[35] = Suppressed Gene, Cancer Suppressing Gene, Gene No. 30909, tumor rejection antigen (gp96) 1 (TRA1)
[36] = Suppressed Gene, Cancer Suppressing Gene, Gene No. 35687, heat shock protein 75 (TRAP1)
[37] = Suppressed Gene, Cancer Suppressing Gene, Gene No. 36334, heat shock 70 kDa protein 14 (HSPA14)
[38] = Suppressed Gene, Cancer Suppressing Gene, Gene No. 37600, AHA1, activator of heat shock 90 kDa protein ATPase homolog 1 (yeast) (AHSA1)
[39] = Suppressed Gene, Cancer Suppressing Gene, Gene No. 50395, Ras suppressor protein 1 (RSU1), transcript variant 1
[40] = Suppressed Gene, Cancer Suppressing Gene, Gene No. 52111, leukemia cell normalized cDNA library cDNA clone LEU1757_26_C2
[41] = Suppressed Gene, Immune System Gene, Gene No. 4403, programmed cell death 4 (neoplastic transformation inhibitor) (PDCD4), transcript variant 2
[42] = Suppressed Gene, Immune System Gene, Gene No. 4899, interferon (alpha, beta and omega) receptor 2 (IFNAR2), transcript variant 1
[43] = Suppressed Gene, Immune System Gene, Gene No. 8634, perform 1 (pore forming protein) (PRF1)
[44] = Suppressed Gene, Immune System Gene, Gene No. 8922, interferon induced transmembrane protein 1 (9-27) (IFITM1)
[45] = Suppressed Gene, Immune System Gene, Gene No. 9938, interleukin 17D (IL17D)
[46] = Suppressed Gene, Immune System Gene, Gene No. 10204, interferon-related developmental regulator 1 (IFRD1)
[47] = Suppressed Gene, Immune System Gene, Gene No. 10791, HLA-B associated transcript 5 (BAT5)
[48] = Suppressed Gene, Immune System Gene, Gene No. 11236, natural killer cell group 7 sequence (NKG7), mRNA
[49] = Suppressed Gene, Immune System Gene, Gene No. 11635, thymosin, beta 4, Y-linked (TMSB4Y)

Substance: the Peptide (QPQFGRRMESK; Human squamous cell carcinoma)
- Enhancement Ratio [1]: 7.233
- Expression Amount after Treatment with the Peptide [1]: 24.93
- Enhancement Ratio [2]: 1.853
- Expression Amount after Treatment with the Peptide [2]: 608.5
- Enhancement Ratio [3]: 4.547
- Expression Amount after Treatment with the Peptide [3]: 122.7
- Enhancement Ratio [4]: 37.72
- Expression Amount after Treatment with the Peptide [4]: 4927
- Enhancement Ratio [5]: 7.555
- Expression Amount after Treatment with the Peptide [5]: 20.69
- Enhancement Ratio [6]: 30.05
- Expression Amount after Treatment with the Peptide [6]: 19.83
- Enhancement Ratio (Enhanced Gene, Immune System Gene, Gene No. 30707, immunoglobulin superfamily, member 4C (IGSF4C)): 7.379
- Enhancement Ratio [7]: 2.225
- Expression Amount after Treatment with the Peptide [7]: 85.26
- Enhancement Ratio [8]: 4.932
- Expression Amount after Treatment with the Peptide [8]: 11.37
- Enhancement Ratio [9]: 2.53
- Expression Amount after Treatment with the Peptide [9]: 8.623
- Enhancement Ratio [10]: 2.032
- Expression Amount after Treatment with the Peptide [10]: 3307
- Enhancement Ratio [11]: 2.462
- Expression Amount after Treatment with the Peptide [11]: 22.62
- Enhancement Ratio [12]: 6.36
- Expression Amount after Treatment with the Peptide [12]: 393.7
- Enhancement Ratio [13]: 9.349
- Expression Amount after Treatment with the Peptide [13]: 5.453
- Enhancement Ratio [14]: 1.786
- Expression Amount after Treatment with the Peptide [14]: 67.54
- Enhancement Ratio [15]: 11.83
- Expression Amount after Treatment with the Peptide [15]: 350.3
- Enhancement Ratio [16]: 2.435
- Expression Amount after Treatment with the Peptide [16]: 18.61
- Enhancement Ratio [17]: 2.175
- Expression Amount after Treatment with the Peptide [17]: 15.71
- Enhancement Ratio [18]: 2.567
- Expression Amount after Treatment with the Peptide [18]: 7.219
- Enhancement Ratio [19]: 2.225
- Expression Amount after Treatment with the Peptide [19]: 15.32
- Enhancement Ratio [20]: 45.9
- Expression Amount after Treatment with the Peptide [20]: 7.742
- Enhancement Ratio [21]: 9.47
- Expression Amount after Treatment with the Peptide [21]: 571.2
- Enhancement Ratio [22]: 2.498
- Expression Amount after Treatment with the Peptide [22]: 204.4
- Enhancement Ratio [23]: 1.898
- Expression Amount after Treatment with the Peptide [23]: 55.05
- Enhancement Ratio [24]: 3.478
- Expression Amount after Treatment with the Peptide [24]: 10.06
- Enhancement Ratio [25]: 28.44
- Expression Amount after Treatment with the Peptide [25]: 9.806
- Enhancement Ratio [26]: 26.92
- Expression Amount after Treatment with the Peptide [26]: 1.098
- Enhancement Ratio [27]: 9.116
- Expression Amount after Treatment with the Peptide [27]: 24.17
- Enhancement Ratio [28]: 5.871
- Expression Amount after Treatment with the Peptide [28]: 417.5
- Enhancement Ratio [29]: 12.79
- Expression Amount after Treatment with the Peptide [29]: 32.41
- Enhancement Ratio [30]: 1.982
- Expression Amount after Treatment with the Peptide [30]: 14.55
- Enhancement Ratio [31]: 21.14
- Expression Amount after Treatment with the Peptide [31]: 236.2
- Expression Amount after Treatment with the Peptide [32]: 9
- Suppression Ratio [32]: 84.27
- Expression Amount after Treatment with the Peptide [33]: 6.257
- Suppression Ratio [33]: 60.59
- Expression Amount after Treatment with the Peptide [34]: 14.74
- Suppression Ratio [34]: 81.87
- Expression Amount after Treatment with the Peptide [35]: 11.47
- Suppression Ratio [35]: 86.08
- Expression Amount after Treatment with the Peptide [36]: 0.2252
- Suppression Ratio [36]: 461.4
- Expression Amount after Treatment with the Peptide [37]: 2.08
- Suppression Ratio [37]: 164.2
- Expression Amount after Treatment with the Peptide [38]: 8.429
- Suppression Ratio [38]: 116.6
- Expression Amount after Treatment with the Peptide [39]: 8.763
- Suppression Ratio [39]: 53.66
- Expression Amount after Treatment with the Peptide [40]: 13.6
- Suppression Ratio [40]: 43.65
- Expression Amount after Treatment with the Peptide [41]: 21.97
- Suppression Ratio [41]: 40.6
- Expression Amount after Treatment with the Peptide [42]: 4.5
- Suppression Ratio [42]: 119.2
- Expression Amount after Treatment with the Peptide [43]: 10.2
- Suppression Ratio [43]: 92.95
- Expression Amount after Treatment with the Peptide [44]: 110.9
- Suppression Ratio [44]: 98.91
- Expression Amount after Treatment with the Peptide [45]: 0.3
- Suppression Ratio [45]: 39.28
- Expression Amount after Treatment with the Peptide [46]: 9.714
- Suppression Ratio [46]: 71.65
- Expression Amount after Treatment with the Peptide [47]: 3.429
- Suppression Ratio [47]: 150.9
- Expression Amount after Treatment with the Peptide [48]: 65.47
- Suppression Ratio [48]: 72.38
- Expression Amount after Treatment with the Peptide [49]: 2.5
- Suppression Ratio [49]: 42.45
- Expression Amount after Treatment with the Peptide (Suppressed Gene, Immune System Gene, Gene No. 11651, implantation-associated protein (DKFZp564K142)): 12.84
